According to patent US20230416232A1, “PYRIMIDINE COMPOUNDS, COMPOSITIONS, AND MEDICINAL APPLICATIONS THEREOF” (Blueprint Medicines Corporation, priority 2020, published 2023):

Columns and labels:
Format in all cases: cell-based
[1] = tested on: A431 cells; assay: Cellular proliferation (Alamar Blue) assay, A431 cells; settings: Homo sapiens, A-431, 72 h, A431 cells; 72 hr; Alamar Blue; read-out: A431 IC50
In short: (§1)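 72 h proliferation test; compounds at final 10-0.0005 μM in 3-fold dilution series vs DMSO. Cells pre-plated 16-18 h (Ba/F3 15,000/well, A431 5000/well), 37 °C, 5% CO2. Alamar Blue 3 h end-point.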

[2] = biological target: EGFR (A767_dupASV) expressing Ba/F3 stable cell line (Homo sapiens, UniProt P00533, DUP767-769, cells depend on it); assay: Cellular proliferation (Alamar Blue) assay, EGFR (A767_dupASV) Ba/F3; settings: 72 hr, read-out: A767 IC50
In short: as §1

[3] = biological target: HER2 (A775_G776insYVMA) expressing Ba/F3 stable cell line (Homo sapiens, UniProt P04626, DUP772-775, cells depend on it); assay: Cellular proliferation (Alamar Blue) assay, HER2 (A775_G776insYVMA) Ba/F3; settings: HER2 (A775_G776insYVMA) Ba/F3 cells; 72 hr; Alamar Blue; read-out: YVMA IC50
In short: as §1

[4] = biological target: EGFR (H773insNPH) expressing Ba/F3 stable cell line (Homo sapiens, UniProt P00533, DUP771-773, cells depend on it); assay: Cellular proliferation (Alamar Blue) assay, EGFR (H773insNPH) Ba/F3; settings: 72 hr, read-out: NPH IC50
Experimental: Cell line details: • 1. EGFR(D770_N771insSVD) expressing Ba/F3 stable cell line • 2. EGFR (A767_dupASV) expressing Ba/F3 stable cell line • 3. A431 cells • 4. EGFR (H773insNPH) expressing Ba/F3 stable cell line • 5. HER2 (A775_G776insYVMA) expressing Ba/F3 stable cell line
• 1. Seed cells at 5000 for A431 and 15,000 cells for Ba/F3 in 100 μL/well in complete media (for A431: DMEM with 10% FBS and for Ba/F3 cells: RPMI with 10% FBS) in 96-well tissue culture plate. Leave outer wells without cells for background measurements. Incubate at 37 degree Celsius in 5% CO2 humidified incubator for 16-18 hours. • 2. Add 0.025 ml of 5X concentration compound dilution or DMSO control. Final compound concentration range is 10-0.0005 μM prepared in 3-fold serial dilutions. Incubate for 72 hr at 37 degree Celsius in 5% CO2 humidified incubator. • 3. Add 0.0125 ml Alamar Blue™ reagent to each well with multi-channel pipette and tap gently on each side of the plate to mix. Incubate for 3 hours at 37 degree Celsius in 5% CO2 humidified incubator. • 4. […] Data analysis was performed using XLfit 5.5.0.5.

[5] = biological target: EGFR(D770_N771insSVD) expressing Ba/F3 stable cell line (Homo sapiens, UniProt P00533, DUP768-770, cells depend on it); assay: Cellular proliferation (Alamar Blue) assay, EGFR(D770_N771insSVD) Ba/F3; settings: 72 hr, read-out: D770 IC50
In short: as §1

Chain of EGFR (H773insNPH) expressing Ba/F3 stable cell line (P00533 with tags, fused parts or gaps DUP771-773): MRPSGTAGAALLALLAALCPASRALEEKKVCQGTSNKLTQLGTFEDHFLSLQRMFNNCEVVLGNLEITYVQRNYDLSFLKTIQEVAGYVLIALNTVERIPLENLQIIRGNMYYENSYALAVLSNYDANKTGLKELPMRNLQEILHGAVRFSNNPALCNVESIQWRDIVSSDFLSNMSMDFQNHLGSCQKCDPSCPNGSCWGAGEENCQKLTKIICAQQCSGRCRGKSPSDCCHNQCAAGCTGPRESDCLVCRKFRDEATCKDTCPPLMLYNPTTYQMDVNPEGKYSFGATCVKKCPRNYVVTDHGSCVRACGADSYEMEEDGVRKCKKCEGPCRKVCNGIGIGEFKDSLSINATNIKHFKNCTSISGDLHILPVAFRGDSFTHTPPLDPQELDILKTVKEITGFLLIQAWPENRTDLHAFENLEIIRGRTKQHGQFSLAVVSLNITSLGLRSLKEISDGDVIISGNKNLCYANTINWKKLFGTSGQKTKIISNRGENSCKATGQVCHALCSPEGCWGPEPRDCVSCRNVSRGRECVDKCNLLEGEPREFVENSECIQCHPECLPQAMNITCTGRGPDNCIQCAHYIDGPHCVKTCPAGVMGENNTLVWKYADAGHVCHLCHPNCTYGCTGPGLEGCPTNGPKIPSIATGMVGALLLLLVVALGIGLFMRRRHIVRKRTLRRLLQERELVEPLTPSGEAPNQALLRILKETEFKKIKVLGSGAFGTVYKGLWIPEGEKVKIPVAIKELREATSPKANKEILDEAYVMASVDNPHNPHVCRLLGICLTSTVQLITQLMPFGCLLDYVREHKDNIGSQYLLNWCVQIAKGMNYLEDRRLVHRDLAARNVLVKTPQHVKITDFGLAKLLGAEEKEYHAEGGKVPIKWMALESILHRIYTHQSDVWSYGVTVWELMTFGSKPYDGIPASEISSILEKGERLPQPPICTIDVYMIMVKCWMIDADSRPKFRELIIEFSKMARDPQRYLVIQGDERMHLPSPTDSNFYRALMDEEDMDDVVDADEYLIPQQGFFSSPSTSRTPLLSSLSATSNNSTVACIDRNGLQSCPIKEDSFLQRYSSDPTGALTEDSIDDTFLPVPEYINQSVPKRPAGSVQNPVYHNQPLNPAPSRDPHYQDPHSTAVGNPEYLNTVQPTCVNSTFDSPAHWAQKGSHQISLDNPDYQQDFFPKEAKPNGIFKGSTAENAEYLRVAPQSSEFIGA
Chain of HER2 (A775_G776insYVMA) expressing Ba/F3 stable cell line (P04626 with tags, fused parts or gaps DUP772-775): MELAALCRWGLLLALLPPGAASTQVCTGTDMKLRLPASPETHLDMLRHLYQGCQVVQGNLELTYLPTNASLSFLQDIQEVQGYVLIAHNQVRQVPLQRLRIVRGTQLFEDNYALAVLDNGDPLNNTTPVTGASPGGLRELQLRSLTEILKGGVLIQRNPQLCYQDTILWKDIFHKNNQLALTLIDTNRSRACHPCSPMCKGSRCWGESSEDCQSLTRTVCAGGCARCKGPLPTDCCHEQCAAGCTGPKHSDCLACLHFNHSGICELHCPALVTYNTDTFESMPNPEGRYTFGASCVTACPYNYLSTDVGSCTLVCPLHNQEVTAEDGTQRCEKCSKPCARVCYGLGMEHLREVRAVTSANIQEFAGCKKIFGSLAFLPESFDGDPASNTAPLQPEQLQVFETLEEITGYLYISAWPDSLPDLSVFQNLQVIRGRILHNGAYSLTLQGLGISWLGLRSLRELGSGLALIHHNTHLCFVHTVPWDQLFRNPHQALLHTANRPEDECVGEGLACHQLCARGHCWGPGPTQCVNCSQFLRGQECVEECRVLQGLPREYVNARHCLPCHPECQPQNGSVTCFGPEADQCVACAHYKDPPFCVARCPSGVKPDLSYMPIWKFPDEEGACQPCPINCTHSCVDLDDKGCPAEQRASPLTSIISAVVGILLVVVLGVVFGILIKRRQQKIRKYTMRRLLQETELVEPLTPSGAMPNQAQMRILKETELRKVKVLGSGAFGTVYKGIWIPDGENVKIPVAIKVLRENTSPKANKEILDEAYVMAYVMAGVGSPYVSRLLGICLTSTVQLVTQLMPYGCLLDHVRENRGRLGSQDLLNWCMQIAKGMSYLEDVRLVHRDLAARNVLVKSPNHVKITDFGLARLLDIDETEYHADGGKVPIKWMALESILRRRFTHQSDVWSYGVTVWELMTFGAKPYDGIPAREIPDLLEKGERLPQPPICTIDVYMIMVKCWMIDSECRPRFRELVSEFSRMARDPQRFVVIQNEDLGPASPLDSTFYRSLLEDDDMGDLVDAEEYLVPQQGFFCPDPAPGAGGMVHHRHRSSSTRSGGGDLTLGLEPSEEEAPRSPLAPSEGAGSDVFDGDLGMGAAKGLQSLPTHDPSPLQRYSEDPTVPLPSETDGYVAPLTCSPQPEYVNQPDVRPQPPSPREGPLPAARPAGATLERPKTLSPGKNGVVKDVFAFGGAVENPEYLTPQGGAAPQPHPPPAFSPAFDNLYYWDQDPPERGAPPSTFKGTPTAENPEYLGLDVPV
Chain of EGFR (A767_dupASV) expressing Ba/F3 stable cell line (P00533 with tags, fused parts or gaps DUP767-769): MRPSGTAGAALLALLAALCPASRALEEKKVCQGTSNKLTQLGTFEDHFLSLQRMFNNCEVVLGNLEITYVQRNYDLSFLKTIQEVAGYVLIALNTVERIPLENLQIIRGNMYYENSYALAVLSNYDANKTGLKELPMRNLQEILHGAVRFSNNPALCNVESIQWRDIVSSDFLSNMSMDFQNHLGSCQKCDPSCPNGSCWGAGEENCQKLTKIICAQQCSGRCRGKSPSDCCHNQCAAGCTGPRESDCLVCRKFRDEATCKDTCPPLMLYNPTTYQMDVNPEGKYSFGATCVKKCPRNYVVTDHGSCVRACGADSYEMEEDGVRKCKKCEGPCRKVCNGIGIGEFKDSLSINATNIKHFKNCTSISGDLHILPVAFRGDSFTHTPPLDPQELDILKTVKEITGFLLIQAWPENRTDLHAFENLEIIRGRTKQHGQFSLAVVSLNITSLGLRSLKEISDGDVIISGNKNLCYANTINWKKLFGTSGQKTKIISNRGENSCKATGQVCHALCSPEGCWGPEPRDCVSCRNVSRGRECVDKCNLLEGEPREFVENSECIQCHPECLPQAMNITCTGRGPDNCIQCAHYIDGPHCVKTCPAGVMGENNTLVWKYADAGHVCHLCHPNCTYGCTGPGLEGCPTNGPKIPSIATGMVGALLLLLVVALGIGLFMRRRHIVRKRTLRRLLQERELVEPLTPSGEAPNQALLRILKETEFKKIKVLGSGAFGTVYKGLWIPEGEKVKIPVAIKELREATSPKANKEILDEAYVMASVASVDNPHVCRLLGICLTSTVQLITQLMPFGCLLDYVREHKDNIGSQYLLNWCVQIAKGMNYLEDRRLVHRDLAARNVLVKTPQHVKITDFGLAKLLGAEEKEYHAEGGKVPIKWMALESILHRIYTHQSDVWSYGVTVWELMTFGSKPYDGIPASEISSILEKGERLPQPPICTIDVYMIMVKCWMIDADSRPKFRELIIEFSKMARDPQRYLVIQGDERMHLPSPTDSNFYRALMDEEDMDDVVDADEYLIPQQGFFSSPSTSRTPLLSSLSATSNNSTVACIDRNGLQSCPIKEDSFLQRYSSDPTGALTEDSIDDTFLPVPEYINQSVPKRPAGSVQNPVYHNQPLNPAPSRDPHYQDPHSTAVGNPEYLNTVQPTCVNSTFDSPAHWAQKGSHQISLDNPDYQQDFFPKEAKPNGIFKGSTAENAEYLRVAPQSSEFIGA
Chain of EGFR(D770_N771insSVD) expressing Ba/F3 stable cell line (P00533 with tags, fused parts or gaps DUP768-770): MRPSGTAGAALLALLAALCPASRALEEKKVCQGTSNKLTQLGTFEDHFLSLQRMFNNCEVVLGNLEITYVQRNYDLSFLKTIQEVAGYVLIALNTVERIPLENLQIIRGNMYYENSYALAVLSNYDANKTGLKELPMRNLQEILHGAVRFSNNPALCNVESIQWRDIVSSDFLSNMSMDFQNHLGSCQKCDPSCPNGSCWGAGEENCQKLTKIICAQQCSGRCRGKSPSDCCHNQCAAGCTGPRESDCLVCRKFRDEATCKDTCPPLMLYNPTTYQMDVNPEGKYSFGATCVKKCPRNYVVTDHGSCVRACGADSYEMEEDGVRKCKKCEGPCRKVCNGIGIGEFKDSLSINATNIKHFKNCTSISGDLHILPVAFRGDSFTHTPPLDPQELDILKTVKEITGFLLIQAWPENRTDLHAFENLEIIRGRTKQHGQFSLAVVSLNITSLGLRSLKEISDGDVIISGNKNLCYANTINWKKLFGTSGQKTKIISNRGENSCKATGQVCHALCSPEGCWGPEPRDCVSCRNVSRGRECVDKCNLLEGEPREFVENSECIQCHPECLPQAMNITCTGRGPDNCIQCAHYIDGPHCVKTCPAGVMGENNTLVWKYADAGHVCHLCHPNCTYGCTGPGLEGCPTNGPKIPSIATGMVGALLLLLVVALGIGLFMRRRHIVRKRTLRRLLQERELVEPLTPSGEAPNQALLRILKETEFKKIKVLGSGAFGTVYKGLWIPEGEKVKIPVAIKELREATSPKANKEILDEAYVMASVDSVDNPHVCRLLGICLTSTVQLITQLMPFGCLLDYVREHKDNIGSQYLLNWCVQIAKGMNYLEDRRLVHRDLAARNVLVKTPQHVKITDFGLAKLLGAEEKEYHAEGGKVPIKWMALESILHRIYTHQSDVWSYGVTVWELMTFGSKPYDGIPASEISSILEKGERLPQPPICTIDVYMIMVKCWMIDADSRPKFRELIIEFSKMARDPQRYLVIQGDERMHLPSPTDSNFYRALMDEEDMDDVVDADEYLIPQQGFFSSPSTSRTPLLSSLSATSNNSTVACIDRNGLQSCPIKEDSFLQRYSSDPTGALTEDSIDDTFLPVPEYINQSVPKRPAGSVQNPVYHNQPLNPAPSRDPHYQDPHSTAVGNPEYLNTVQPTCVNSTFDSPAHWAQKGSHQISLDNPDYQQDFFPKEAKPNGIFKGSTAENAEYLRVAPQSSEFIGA

SMILES | IC50 [1] [nM] | GI50 [2] [nM] | GI50 [3] [nM] | GI50 [4] [nM] | GI50 [5] [nM]
C=CC(=O)Nc1ccc(F)c(Nc2nc(Nc3cnn(C)c3)ncc2-c2ccc(OC(F)(F)F)c(F)c2)c1 [Compound 14, N-(4-fluoro-3-((5-(3-fluoro-4-(trifluoromethoxy)phenyl)-2-((1-methyl-1H-pyrazol-4-yl)amino)pyrimidin-4-yl)amino)phenyl)acrylamide] | 140 | 26 | 107 | 59 | 
C=CC(=O)Nc1ccc(F)c(Nc2nc(Nc3cnn(C)c3)ncc2-c2cnc(Cl)c(C)c2)c1 [Compound 48, N-(3-((5-(6-chloro-5-methylpyridin-3-yl)-2-((1-methyl-1H-pyrazol-4-yl)amino)pyrimidin-4-yl)amino)-4-fluorophenyl)acrylamide] | 68 |  | 36 | 31 | 
C=CC(=O)Nc1cccc(Nc2nc(Nc3cnn(C)c3)ncc2-c2ccc(OC)c(F)c2)c1 [Compound 69, N-(3-((5-(3-fluoro-4-methoxyphenyl)-2-((1-methyl-1H-pyrazol-4-yl)amino)pyrimidin-4-yl)amino)phenyl)acrylamide] | 73 | 14 | 27 | 21 | 
C=CC(=O)Nc1cccc(Nc2nc(Nc3cnn(C)c3)ncc2-c2ccc(Cl)c(F)c2)c1 [Compound 68, N-(3-((5-(4-chloro-3-fluorophenyl)-2-((1-methyl-1H-pyrazol-4-yl)amino)pyrimidin-4-yl)amino)phenyl)acrylamide] | 60 | 23 |  | 21 | 14
C=CC(=O)Nc1cccc(Nc2nc(Nc3cnn(C)c3)ncc2-c2ccc(N(C)C)c(F)c2)c1 [Compound 30, N-(3-((5-(4-(dimethylamino)-3-fluorophenyl)-2-((1-methyl-1H-pyrazol-4-yl)amino)pyrimidin-4-yl)amino)phenyl)acrylamide] | 299 |  | 91 | 40 | 35
C=CC(=O)Nc1ccc(F)c(Nc2nc(Nc3cnn(C)c3)ncc2-c2ccc(C3=CCN(C)CC3)c(F)c2)c1 [Compound 55, N-(4-fluoro-3-((5-(3-fluoro-4-(1-methyl-1,2,3,6-tetrahydropyridin-4-yl)phenyl)-2-((1-methyl-1H-pyrazol-4-yl)amino)pyrimidin-4-yl)amino)phenyl)acrylamide] | 2230 | 800 |  | 3640 | 2240
C=CC(=O)Nc1ccc(F)c(Nc2nc(Nc3cnn(C)c3)ncc2-c2cc(F)cc(Cl)c2)c1 [Compound 34, N-(3-((5-(3-chloro-5-fluorophenyl)-2-((1-methyl-1H-pyrazol-4-yl)amino)pyrimidin-4-yl)amino)-4-fluorophenyl)acrylamide] | 303 | 39 | 84 | 50 | 
C=CC(=O)Nc1ccc(F)c(Nc2nc(Nc3cnn(C4COC4)c3)ncc2-c2ccc(Br)c(F)c2)c1 [Compound 94, N-(3-((5-(4-bromo-3-fluorophenyl)-2-((1-(oxetan-3-yl)-1H-pyrazol-4-yl)amino)pyrimidin-4-yl)amino)-4-fluorophenyl)acrylamide] | 31 | 40 | 144 | 35 | 
C=CC(=O)Nc1ccc(F)c(Nc2nc(Nc3cnn(C)c3)ncc2-c2ccc(Br)c(F)c2)c1 [Compound 87, N-(3-{[5-(4-bromo-3-fluorophenyl)-2-[(1-methyl-1H-pyrazol-4-yl)amino]pyrimidin-4-yl]amino}-4-fluorophenyl) prop-2-enamide] | 18 |  | 83 | 116 | 
C=CC(=O)Nc1ccc(F)c(Nc2nc(Nc3cnn(CCOC)c3)ncc2-c2ccc(F)c(Cl)c2)c1 [Compound 100, N-(3-((5-(3-chloro-4-fluorophenyl)-2-((1-(2-methoxyethyl)-1H-pyrazol-4-yl)amino)pyrimidin-4-yl)amino)-4-fluorophenyl)acrylamide] | 1200 | 301 | 860 |  | 274
C=CC(=O)Nc1ccc(F)c(Nc2nc(Nc3cnn(CCN(C)C)c3)ncc2-c2ccc(N3CCCCC3)c(F)c2)c1 [Compound 82, N-(3-((2-((1-(2-(dimethylamino)ethyl)-1H-pyrazol-4-yl)amino)-5-(3-fluoro-4-(piperidin-1-yl)phenyl)pyrimidin-4-yl)amino)-4-fluorophenyl)acrylamide] | 397 | 239 | 149 |  | 313
[2H]C([2H])([2H])n1cc(Nc2ncc(-c3cc(F)cc(F)c3)c(Nc3cc(NC(=O)/C=C/CN(C)C)ccc3F)n2)cn1 [Compound 167, (E)-N-(3-((5-(3,5-difluorophenyl)-2-((1-(methyl-d3)-1H-pyrazol-4-yl)amino)pyrimidin-4-yl)amino)-4-fluorophenyl)-4-(dimethylamino)but-2-enamide] | 512 | 234 | 142 |  | 84
C=CC(=O)Nc1ccc(F)c(Nc2nc(Nc3cnn(C)c3)ncc2-c2ccc(N3CCC3)c(F)c2)c1 [Compound 80, N-(3-((5-(4-(azetidin-1-yl)-3-fluorophenyl)-2-((1-methyl-1H-pyrazol-4-yl)amino)pyrimidin-4-yl)amino)-4-fluorophenyl)acrylamide] | 54 | 43 | 171 |  | 95
C=CC(=O)Nc1ccc(F)c(Nc2nc(Nc3cnn(C)c3)ncc2-c2c(F)cccc2OC)c1 [Compound 63, N-(4-fluoro-3-((5-(2-fluoro-6-methoxyphenyl)-2-((1-methyl-1H-pyrazol-4-yl)amino)pyrimidin-4-yl)amino)phenyl)acrylamide] | > 10000 | 3090 | 884 |  | 3270
[2H]c1c(F)cc(-c2cnc(Nc3cnn(C)c3)nc2Nc2cc(NC(=O)C=C)ccc2F)cc1F [Compound 157, N-[3-({5-[3,5-difluoro(4-^2H)phenyl]-2-[(1-methyl-1H-pyrazol-4-yl)amino]pyrimidin-4-yl}amino)-4-fluorophenyl] prop-2-enamide] | 23 | 35 | 151 |  | 16
C=CC(=O)Nc1ccc(F)c(Nc2nc(Nc3cnn(C)c3)ncc2-c2cc(F)c(F)c(C(F)F)c2)c1 [Compound 141, N-(3-((5-(3-(difluoromethyl)-4,5-difluorophenyl)-2-((1-methyl-1H-pyrazol-4-yl)amino)pyrimidin-4-yl)amino)-4-fluorophenyl)acrylamide] | 13 | 25 | 167 |  | 16
C=CC(=O)Nc1ccc(F)c(Nc2nc(Nc3cnn(C)c3)ncc2-c2cc(F)c(Br)c(Cl)c2)c1 [Compound 123, N-(3-((5-(4-bromo-3-chloro-5-fluorophenyl)-2-((1-methyl-1H-pyrazol-4-yl)amino)pyrimidin-4-yl)amino)-4-fluorophenyl)acrylamide] | 71 | 50 | 66 |  | 40
C=CC(=O)Nc1cccc(Nc2nc(Nc3cnn(C)c3)ncc2-c2ccc(Br)c(F)c2)c1 [Compound 115, N-(3-((5-(4-bromo-3-fluorophenyl)-2-((1-methyl-1H-pyrazol-4-yl)amino)pyrimidin-4-yl)amino)phenyl)acrylamide] | 11 | 36 | 86 |  | 32
C=CC(=O)Nc1ccc(F)c(Nc2nc(Nc3cnn(C)c3)ncc2-c2cc(C(F)(F)F)ccc2F)c1 [Compound 24, N-(4-fluoro-3-((5-(2-fluoro-5-(trifluoromethyl)phenyl)-2-((1-methyl-1H-pyrazol-4-yl)amino)pyrimidin-4-yl)amino)phenyl)acrylamide] | 9420 | 321 | 588 |  | 300
C=CC(=O)Nc1cccc(Nc2nc(Nc3cnn(C)c3)ncc2-c2cc(F)c(Br)c(F)c2)c1 [Compound 152, N-(3-((5-(4-bromo-3,5-difluorophenyl)-2-((1-methyl-1H-pyrazol-4-yl)amino)pyrimidin-4-yl)amino)phenyl)acrylamide] | 8 | 34 | 40 |  | 11
